Laboratory results: the NIST ThermoML archive (doi:10.1021/je700205n)

Details: Liquid

CCCCCCCn1cc[n+](C)c1.O=S(=O)([N-]S(=O)(=O)C(F)(F)F)C(F)(F)F
mass density [kg/m3]
Details | 293.15 K | 303.15 K | 313.15 K | 323.15 K | 333.15 K | 343.15 K | 353.15 K | 393.15 K
100 kPa | 1352 | 1342 | 1332 | 1322 | 1313 | 1304 | 1295 | 1261
1000 kPa | 1353 | 1343 | 1333 | 1323 | 1314 | 1304 | 1296 | 1262
2000 kPa | 1354 | 1343 | 1333 | 1324 | 1315 | 1305 | 1296 | 1263
3000 kPa | 1354 | 1344 | 1334 | 1325 | 1316 | 1306 | 1297 | 1264
4000 kPa | 1355 | 1345 | 1335 | 1325 | 1317 | 1307 | 1298 | 1265
5000 kPa | 1356 | 1346 | 1336 | 1326 | 1317 | 1308 | 1299 | 1266
7500 kPa | 1358 | 1347 | 1338 | 1328 | 1319 | 1310 | 1301 | 1268
10000 kPa | 1359 | 1349 | 1339 | 1330 | 1321 | 1312 | 1303 | 1271
15000 kPa | 1363 | 1353 | 1343 | 1334 | 1325 | 1316 | 1308 | 1276
20000 kPa | 1366 | 1357 | 1347 | 1338 | 1329 | 1320 | 1312 | 1281
25000 kPa | 1370 | 1360 | 1351 | 1342 | 1333 | 1324 | 1316 | 1285
30000 kPa | 1373 | 1364 | 1355 | 1345 | 1337 | 1328 | 1320 | 1290

CCCCCCCCn1cc[n+](C)c1.O=S(=O)([N-]S(=O)(=O)C(F)(F)F)C(F)(F)F
mass density [kg/m3]
Details | 293.15 K | 303.15 K | 313.15 K | 323.15 K | 333.15 K | 343.15 K | 353.15 K | 393.15 K
100 kPa | 1328 | 1315 | 1305 | 1296 | 1286 | 1278 | 1269 | 1236
1000 kPa | 1328 | 1316 | 1306 | 1296 | 1287 | 1278 | 1270 | 1237
2000 kPa | 1329 | 1317 | 1307 | 1297 | 1288 | 1279 | 1270 | 1238
3000 kPa | 1330 | 1317 | 1307 | 1298 | 1289 | 1280 | 1271 | 1239
4000 kPa | 1330 | 1318 | 1308 | 1299 | 1289 | 1281 | 1272 | 1240
5000 kPa | 1331 | 1319 | 1309 | 1299 | 1290 | 1282 | 1273 | 1241
7500 kPa | 1333 | 1321 | 1311 | 1301 | 1292 | 1284 | 1275 | 1243
10000 kPa | 1334 | 1322 | 1312 | 1303 | 1294 | 1286 | 1277 | 1246
15000 kPa | 1338 | 1326 | 1316 | 1307 | 1298 | 1290 | 1282 | 1251
20000 kPa | 1341 | 1329 | 1320 | 1311 | 1302 | 1294 | 1286 | 1256
25000 kPa | 1345 | 1333 | 1324 | 1315 | 1306 | 1298 | 1290 | 1261
30000 kPa | 1348 | 1337 | 1327 | 1319 | 1310 | 1303 | 1294 | 1266

CCn1cc[n+](C)c1.O=S(=O)([N-]S(=O)(=O)C(F)(F)F)C(F)(F)F
mass density [kg/m3]
Details | 293.15 K | 303.15 K | 313.15 K | 323.15 K | 333.15 K | 343.15 K | 353.15 K | 393.15 K
100 kPa | 1526 | 1514 | 1503 | 1493 | 1482 | 1472 | 1461 | 1424
1000 kPa | 1526 | 1515 | 1504 | 1493 | 1483 | 1472 | 1462 | 1424
2000 kPa | 1527 | 1516 | 1505 | 1494 | 1483 | 1473 | 1463 | 1425
3000 kPa | 1528 | 1517 | 1506 | 1495 | 1484 | 1474 | 1464 | 1426
4000 kPa | 1528 | 1517 | 1506 | 1496 | 1485 | 1475 | 1465 | 1427
5000 kPa | 1529 | 1518 | 1507 | 1496 | 1486 | 1476 | 1466 | 1428
7500 kPa | 1531 | 1520 | 1509 | 1498 | 1488 | 1478 | 1468 | 1431
10000 kPa | 1533 | 1522 | 1511 | 1500 | 1490 | 1480 | 1470 | 1433
15000 kPa | 1536 | 1525 | 1515 | 1504 | 1494 | 1484 | 1474 | 1438
20000 kPa | 1540 | 1529 | 1518 | 1508 | 1498 | 1488 | 1478 | 1443
25000 kPa | 1543 | 1532 | 1522 | 1512 | 1502 | 1492 | 1483 | 1448
30000 kPa | 1547 | 1536 | 1526 | 1516 | 1506 | 1496 | 1487 | 1453

CCn1cc[n+](C)c1.F[B-](F)(F)F [1-ethyl-3-methylimidazolium tetrafluoroborate]
mass density [kg/m3]
Details | 293.15 K | 303.15 K | 313.15 K | 323.15 K | 333.15 K | 343.15 K | 353.15 K | 393.15 K
100 kPa | 1305 | 1296 | 1288 | 1280 | 1272 | 1264 | 1257 | 1229
1000 kPa | 1305 | 1296 | 1288 | 1280 | 1272 | 1265 | 1257 | 1230
2000 kPa | 1306 | 1297 | 1289 | 1281 | 1273 | 1265 | 1258 | 1230
3000 kPa | 1306 | 1297 | 1289 | 1281 | 1273 | 1266 | 1258 | 1231
4000 kPa | 1307 | 1298 | 1290 | 1282 | 1274 | 1266 | 1259 | 1231
5000 kPa | 1307 | 1298 | 1290 | 1282 | 1274 | 1267 | 1259 | 1232
7500 kPa | 1308 | 1299 | 1291 | 1283 | 1275 | 1268 | 1261 | 1233
10000 kPa | 1309 | 1300 | 1292 | 1284 | 1277 | 1269 | 1262 | 1235
15000 kPa | 1311 | 1303 | 1295 | 1287 | 1279 | 1272 | 1264 | 1238
20000 kPa | 1313 | 1305 | 1297 | 1289 | 1281 | 1274 | 1267 | 1240
25000 kPa | 1316 | 1307 | 1299 | 1291 | 1284 | 1277 | 1269 | 1243
30000 kPa | 1318 | 1309 | 1301 | 1294 | 1286 | 1279 | 1272 | 1246
